Experimental data taken from PubChem BioAssay AID248 (DTP/NCI, 2004).
Where “and” joins values, the source holds several entries; their conditions need not be identical. Equal entries are not always repeated. Toxic doses and inconclusive results are not listed. Cut-off read from the data, not from the text of the source: active = T/C of 150% or more; inactive = T/C below 125%.

Tested on: L1210 leukemia ip in BDF1 mice, survival T/C
Test: NCI In Vivo Anticancer Drug Screen. Data for tumor model L1210 Leukemia (intraperitoneal) in B6D2F1 (BDF1) mice
Settings: endpoint: mean survival time, higher = longer survival
In short: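 Transplanted-tumor mice were given test agent; controls received vehicle only. Survival readings from the two groups were divided (treated over control).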

[1] = dose: 100.0 mg/kg/injection, schedule: Q01DX001 (ip), vehicle: other
[2] = dose: 200.0 mg/kg/injection, schedule: Q01DX001 (ip), vehicle: other
[3] = dose: 400.0 mg/kg/injection, schedule: Q01DX001 (ip), vehicle: other
[4] = dose: 12.5 mg/kg/injection, schedule: Q01DX009 (ip), vehicle: Klucel (hydroxypropylcellulose) (HPC)
[5] = dose: 25.0 mg/kg/injection, schedule: Q01DX009 (ip), vehicle: Klucel (hydroxypropylcellulose) (HPC)
[6] = dose: 50.0 mg/kg/injection, schedule: Q01DX009 (ip), vehicle: Klucel (hydroxypropylcellulose) (HPC)
[7] = dose: 100.0 mg/kg/injection, schedule: Q01DX009 (ip), vehicle: saline with Tween-80
[8] = dose: 100.0 mg/kg/injection, schedule: Q04DX003 (ip), vehicle: saline with Tween-80
[9] = dose: 200.0 mg/kg/injection, schedule: Q01DX009 (ip), vehicle: saline with Tween-80
[10] = dose: 200.0 mg/kg/injection, schedule: Q04DX003 (ip), vehicle: saline with Tween-80
[11] = dose: 400.0 mg/kg/injection, schedule: Q01DX009 (ip), vehicle: saline with Tween-80
[12] = dose: 400.0 mg/kg/injection, schedule: Q04DX003 (ip), vehicle: saline with Tween-80
[13] = dose: 100.0 mg/kg/injection, schedule: Q01DX001 (ip), vehicle: carboxymethylcellulose (CMC)
[14] = dose: 200.0 mg/kg/injection, schedule: Q01DX001 (ip), vehicle: carboxymethylcellulose (CMC)
[15] = dose: 400.0 mg/kg/injection, schedule: Q01DX001 (ip), vehicle: carboxymethylcellulose (CMC)
[16] = dose: 240.0 mg/kg/injection, schedule: Q01DX Z (ip), vehicle: saline
[17] = dose: 100.0 mg/kg/injection, schedule: Q01DX009 (ip), vehicle: Klucel (hydroxypropylcellulose) (HPC)
[18] = dose: 200.0 mg/kg/injection, schedule: Q01DX009 (ip), vehicle: Klucel (hydroxypropylcellulose) (HPC)
[19] = dose: 400.0 mg/kg/injection, schedule: Q01DX009 (ip), vehicle: Klucel (hydroxypropylcellulose) (HPC)
[20] = dose: 100.0 mg/kg/injection, schedule: Q01DX009 (ip), vehicle: saline
[21] = dose: 25.0 mg/kg/injection, schedule: Q04DX003 (ip), vehicle: Klucel (hydroxypropylcellulose) (HPC)
[22] = dose: 50.0 mg/kg/injection, schedule: Q04DX003 (ip), vehicle: Klucel (hydroxypropylcellulose) (HPC)
[23] = dose: 100.0 mg/kg/injection, schedule: Q04DX003 (ip), vehicle: Klucel (hydroxypropylcellulose) (HPC)

Measured: T/C

CCCCN=C(NCCCC)OC1CCCCC1
inactive: dose: 11.1 mg/kg/injection, schedule: Q01DX Z (ip), vehicle: saline 98 % of control | dose: 16.6 mg/kg/injection, schedule: Q01DX Z (ip), vehicle: saline 100 % of control | dose: 25.0 mg/kg/injection, schedule: Q01DX Z (ip), vehicle: saline 102 % of control

CS(=O)(=O)OCC1(Br)CC1(c1ccccc1)c1ccccc1 (stereo unspecified)
inactive: [1] 95 % of control | [2] 95 % of control | [3] 90 % of control

O=C(Nc1ccc(CCO)cc1)Nc1cc([N+](=O)[O-])ccc1Cl
inactive: [4] 102 % of control | [5] 104 % of control | [6] 91 % of control

COc1cc(C(C)O)cc(OC)c1OC (stereo unspecified)
inactive: [7] 101 % of control | [8] 101 % of control | [9] 98 % of control | [10] 100 % of control | [11] 93 % of control | [12] 99 % of control

Nc1ccc(S(=O)(=O)Nc2ccc(S(=O)(=O)O)c3ccc(S(=O)(=O)O)cc23)cc1
inactive: dose: 75.0 mg/kg/injection, schedule: Q04DX003 (ip), vehicle: Klucel (hydroxypropylcellulose) (HPC) 95 % of control | dose: 150.0 mg/kg/injection, schedule: Q04DX003 (ip), vehicle: Klucel (hydroxypropylcellulose) (HPC) 93 % of control | dose: 300.0 mg/kg/injection, schedule: Q04DX003 (ip), vehicle: Klucel (hydroxypropylcellulose) (HPC) 98 % of control

CCOC(=O)CCCN(c1ccccc1C(=O)OC)S(=O)(=O)c1ccc(C)cc1
inactive: [13] 97 % of control | [14] 94 % of control | [15] 103 % of control

O=NN(C(=O)Nc1ccccc1)C1CCCCC1
inactive: dose: 18.0 mg/kg/injection, schedule: Q01DX001 (ip), vehicle: carboxymethylcellulose (CMC) 96 % of control | dose: 37.0 mg/kg/injection, schedule: Q01DX001 (ip), vehicle: carboxymethylcellulose (CMC) 94 % of control | dose: 75.0 mg/kg/injection, schedule: Q01DX001 (ip), vehicle: carboxymethylcellulose (CMC) 98 % of control | [13] 105 % of control | dose: 150.0 mg/kg/injection, schedule: Q01DX001 (ip), vehicle: carboxymethylcellulose (CMC) 102 % of control | [14] 104 % of control | dose: 250.0 mg/kg/injection, schedule: Q01DX001 (ip), vehicle: carboxymethylcellulose (CMC) 102 % of control

O=C(Nc1ccc(C2=NCCN2)cc1)c1ccc(C(=O)Nc2ccc(C3=NCCN3)cc2)o1
inactive: dose: 15.0 mg/kg/injection, schedule: Q01DX Z (ip), vehicle: carboxymethylcellulose (CMC) 113 % of control | dose: 30.0 mg/kg/injection, schedule: Q01DX Z (ip), vehicle: carboxymethylcellulose (CMC) 120 % of control | dose: 480.0 mg/kg/injection, schedule: Q01DX Z (ip), vehicle: saline 111 % of control
active: dose: 120.0 mg/kg/injection, schedule: Q01DX Z (ip), vehicle: carboxymethylcellulose (CMC) 248 % of control | [16] 252 % of control

CNc1ccc(C(=O)NC(CCC(=O)O)C(=O)O)cc1C(F)(F)F (stereo unspecified)
inactive: [17] 98 % of control | [18] 96 % of control | [19] 98 % of control

c1ccc2c(c1)CCC1C3CCCC3OCN21 (stereo unspecified)
inactive: dose: 50.0 mg/kg/injection, schedule: Q04DX002 (ip), vehicle: saline with Tween-80 101 % of control | dose: 100.0 mg/kg/injection, schedule: Q04DX002 (ip), vehicle: saline with Tween-80 101 % of control | dose: 200.0 mg/kg/injection, schedule: Q04DX002 (ip), vehicle: saline with Tween-80 104 % of control

O=C(/C=C\c1ccc(/C=C/C(=O)Nc2cccc(C3=NCCN3)c2)cc1)Nc1cccc(C2=NCCN2)c1
active: dose: 30.0 mg/kg/injection, schedule: Q01DX Z (ip), vehicle: saline 184 % of control | dose: 60.0 mg/kg/injection, schedule: Q01DX Z (ip), vehicle: saline 189 % of control | dose: 120.0 mg/kg/injection, schedule: Q01DX Z (ip), vehicle: saline 182 % of control | [16] 167 % of control
inactive: dose: 3.75 mg/kg/injection, schedule: Q01DX Z (ip), vehicle: saline 107 % of control | dose: 7.5 mg/kg/injection, schedule: Q01DX Z (ip), vehicle: saline 120 % of control | dose: 15.0 mg/kg/injection, schedule: Q01DX Z (ip), vehicle: saline 122 % of control

CC(=O)Nc1ccc(NC(=O)Nc2cccc(Cl)c2C)cc1
inactive: [17] 89 % of control | [18] 89 % of control | [19] 91 % of control

Cc1ccc(S(=O)(=O)Cl)c(Cl)c1
inactive: dose: 50.0 mg/kg/injection, schedule: Q01DX009 (ip), vehicle: saline with Tween-80 92 % of control | [7] 94 % of control | [9] 91 % of control

CCCCCCCCCCCCCC#N
inactive: [1] 101 % of control | [2] 92 % of control | [3] 92 % of control

CC(C)(C)C(=O)CN
inactive: dose: 100.0 mg/kg/injection, schedule: Q01DX001 (ip), vehicle: saline 116 % of control | [20] 101 % of control and 104 % of control | dose: 100.0 mg/kg/injection, schedule: Q04DX003 (ip), vehicle: saline 101 % of control | dose: 200.0 mg/kg/injection, schedule: Q01DX001 (ip), vehicle: saline 119 % of control | dose: 200.0 mg/kg/injection, schedule: Q01DX009 (ip), vehicle: saline 93 % of control and 97 % of control | dose: 200.0 mg/kg/injection, schedule: Q04DX003 (ip), vehicle: saline 109 % of control | dose: 400.0 mg/kg/injection, schedule: Q01DX001 (ip), vehicle: saline 122 % of control | dose: 400.0 mg/kg/injection, schedule: Q01DX009 (ip), vehicle: saline 101 % of control | dose: 400.0 mg/kg/injection, schedule: Q04DX003 (ip), vehicle: saline 93 % of control

Cc1ccc(CNC(=O)Nc2c(C)cccc2C)cc1C
inactive: dose: 100.0 mg/kg/injection, schedule: Q04DX002 (ip), vehicle: Klucel (hydroxypropylcellulose) (HPC) 102 % of control | dose: 200.0 mg/kg/injection, schedule: Q04DX002 (ip), vehicle: Klucel (hydroxypropylcellulose) (HPC) 108 % of control | dose: 400.0 mg/kg/injection, schedule: Q04DX002 (ip), vehicle: Klucel (hydroxypropylcellulose) (HPC) 97 % of control

O=[N+]([O-])c1cc([N+](=O)[O-])c(Nn2c3ccccc3c3ccccc32)c([N+](=O)[O-])c1
inactive: dose: 6.25 mg/kg/injection, schedule: Q01DX009 (ip), vehicle: Klucel (hydroxypropylcellulose) (HPC) 103 % of control | [4] 104 % of control and 87 % of control | [5] 100 % of control and 102 % of control | [21] 107 % of control | [6] 96 % of control | [22] 95 % of control | [17] 94 % of control | [23] 92 % of control and 96 % of control | dose: 200.0 mg/kg/injection, schedule: Q04DX003 (ip), vehicle: Klucel (hydroxypropylcellulose) (HPC) 94 % of control and 87 % of control | dose: 400.0 mg/kg/injection, schedule: Q04DX003 (ip), vehicle: Klucel (hydroxypropylcellulose) (HPC) 102 % of control

Cc1cc(C)c(CC(C)(CO)CO)cc1CC(C)(CO)CO
inactive: [17] 93 % of control | [18] 87 % of control | dose: 300.0 mg/kg/injection, schedule: Q01DX009 (ip), vehicle: Klucel (hydroxypropylcellulose) (HPC) 106 % of control

Nc1ccc(N=Nc2ccccc2)cc1[N+](=O)[O-]
inactive: [8] 98 % of control | [10] 96 % of control | [12] 94 % of control

O=C1c2ccccc2C(=O)c2c1ccc1c2[nH]c2ccccc21
inactive: [13] 86 % of control | [14] 91 % of control | [15] 89 % of control

Cc1c2ccccc2c(CSCCC(N)C(=O)O)c2ccccc12 (stereo unspecified)
inactive: [7] 89 % of control | [9] 91 % of control | [11] 110 % of control

O=C(NC(=S)Nc1ccc(Cl)cc1C(=O)c1ccccc1)c1ccc(Cl)cc1Cl
inactive: [17] 93 % of control | [18] 96 % of control | [19] 94 % of control

N=C(N)SCCCSC(=N)N
inactive: [21] 95 % of control | [22] 97 % of control | [20] 102 % of control | [23] 97 % of control and 98 % of control
